Activity calls are given as the source filed them. The calls are words filed in the database; no cut-off is given here.
Key:
[1] = Toxicity in male ICR mouse assessed as change in serum creatinine level at 100 mg/kg, ip measured after 14 days; assay type: organism-based; conditions: in vivo, 336 h, time 14 day
MV4-11 [2] = assay: Induction of apoptosis in human MV4-11 cells assessed as viable cells at 100 nM incubated for 24 hrs by Annexin V-FITC/PI dual staining based flow cytometric analysis (reference value: 94.9 %); assay type: functional; conditions: read-out: Activity
MV4-11 [3] = assay: Upregulation of G2/M transition pathway related protein expression in human MV4-11 cells by GO analysis; assay type: functional, cell-based

O=C1CCC(N2Cc3c(NC(=O)CCCCCC(=O)N4CCC(C(=O)Nc5ncc(-c6ccccc6)s5)CC4)cccc3C2=O)C(=O)N1 (stereo not drawn)
Activity [1]: Non-toxic
viability at 0.1 µM (MV4-11 [2]): 71.5%
Activity (MV4-11 [3]): Active

Reference: ChEMBL document CHEMBL6177991, “Discovery of P11-2: A Potent First-in-Class MNK1-Targeting PROTAC Degrader for the Treatment of Cancer” (J Med Chem, 2025)
